From ChEMBL document CHEMBL3813622, “Anion inhibition profiles of α-, β- and γ-carbonic anhydrases from the pathogenic bacterium Vibrio cholerae” (Bioorg Med Chem, 2016)
Several values for one entry are separate records, joined by “and”; a condition that tells them apart may be missing. Equal entries are not always repeated.

Key:
[1] = Inhibition of Vibrio cholerae carbonic anhydrase beta preincubated for 15 mins by stopped-flow CO2 hydrase assay
[2] = Inhibition of Helicobacter pylori alpha carbonic anhydrase preincubated for 15 mins by stopped-flow CO2 hydrase assay
[3] = Inhibition of Vibrio cholerae alpha carbonic anhydrase preincubated for 15 mins by stopped-flow CO2 hydrase assay
Carbonic anhydrase 1 = Carbonic anhydrase 1 (Homo sapiens, UniProt P00915); assay: Inhibition of human carbonic anhydrase 1 preincubated for 15 mins by stopped-flow CO2 hydrase assay
Chain of Carbonic anhydrase 1 (P00915 whole entry): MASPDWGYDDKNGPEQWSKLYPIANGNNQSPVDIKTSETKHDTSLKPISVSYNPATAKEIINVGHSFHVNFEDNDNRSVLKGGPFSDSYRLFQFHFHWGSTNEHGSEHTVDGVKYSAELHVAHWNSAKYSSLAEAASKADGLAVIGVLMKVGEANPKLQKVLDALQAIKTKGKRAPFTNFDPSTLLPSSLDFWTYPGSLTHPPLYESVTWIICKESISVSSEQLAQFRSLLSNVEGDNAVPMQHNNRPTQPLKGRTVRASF

Row | SMILES | Ki [1] | Ki [2] | Ki [3] | Ki (Carbonic anhydrase 1)
1 | O=S(=O)(O)F | 8900 µM | – | – | –
2 | O=S(=O)(O)NS(=O)(=O)O | > 200000 µM | 540 µM | 88200 µM | –
3 | O=S(=O)(O)OOS(=O)(=O)O | 3400 µM | 920 µM | 84100 µM | –
4 | F[B-](F)(F)F | > 200000 µM | > 200000 µM | > 200000 µM | –
5 | O=[N+]([O-])O | 8400 µM | 810 µM | 670 µM | –
6 | O=[Te](=O)(O)O | 2300 µM | 340 µM | 14500 µM | –
7 | N#C[SeH] | 5300 µM | 730 µM | 760 µM | 8.5 µM
8 | [N-]=[N+]=[N-] | 20500 µM | 830 µM | 760 µM | –
9 | O=C(O)O [BICARBONATE] | 5900 µM and 6700 µM | – | 4640 µM and 5130 µM | –
10 | Br [BROMIDE] | 7400 µM | 2410 µM | 28000 µM | –
11 | S=C(S)S [CARBONOTRITHIOIC ACID] | 7000 µM | 380 µM | 88 µM | –
12 | N#CO [CYANATE] | 7100 µM | 600 µM | 75 µM | –
13 | CCN(CC)C(=S)S [DITIOCARB] | 730 µM | 5 µM | 43 µM | –
14 | F [FLUORIDE ION] | 8700 µM | 4080 µM | 800 µM | –
15 | Cl [HYDROCHLORIC ACID] | 8100 µM | 2700 µM | 930 µM | –
16 | S [HYDROGEN SULFIDE] | 21300 µM | – | 74 µM | –
17 | I [IODIDE] | 9000 µM | 6050 µM | 9730 µM | –
18 | O=NO [NITROUS ACID] | 9100 µM | 930 µM | 34100 µM | –
19 | [O-][Cl+3]([O-])([O-])O [PERCHLORATE] | > 200000 µM | 10100 µM | > 200000 µM | –
20 | O=[As](O)(O)c1ccccc1 [PHENYLARSONIC ACID] | 79 µM | 440 µM | 23 µM | –
21 | OB(O)c1ccccc1 [PHENYLBORONIC ACID] | 85 µM | 97 µM | 7 µM | –
22 | O=P(O)(O)OP(=O)(O)O [PYROPHOSPHORIC ACID] | – | 660 µM | 2960 µM | –
23 | O=[Se](=O)(O)O [SELENIC ACID] | 3400 µM | 720 µM | 60800 µM | –
24 | NS(=O)(=O)O [SULFAMATE] | 86 µM | 80 µM | 31 µM | –
25 | NS(N)(=O)=O [SULFAMIDE] | 54 µM | 73 µM | 8 µM | –
26 | O=S(=O)(O)O [SULFURIC ACID] | – | 820 µM | 850 µM | –
27 | O=S(O)O [SULFUROUS ACID] | > 200000 µM | 990 µM | 68 µM | –
28 | N#CS [THIOCYANIC ACID] | 9500 µM | 4100 µM | 820 µM | –
